The values that follow come from patent US20050260126A1 (priority 2002, published 2005).

The subject of data set [1] is abnormal prion proteins (kuru plaques) in brain sections of GSS patients. Also on record: species or system human. The note with it: GSS patient brain sections, 10-200 μM in 50% ethanol, 30 minutes.
Data set [2] has as its system abnormal prion proteins in ScN2a cells with persistent infection of scrapie. Kind of data set: cells. Format: cell-based, mouse. The note with it: for IC50: Mus musculus, ScN2a, 96 h, read-out: Inhibitory effects on producing abnormal prion protein IC50; for Inhibitory effects on producing abnormal prion proteins (in words): ScN2a cells.
For data set [3] the following is noted: Slc:ICR, mouse, not told, iv.
Another data set deals with ScN2a cells. The settings on record: for Concentration of inhibiting cell proliferation TC: mouse.
The next data set can be described thus: in vivo. The note with it: male, Crj:CD1, mouse, iv.
For data set [4], the system named is abnormal prion proteins in ScN2a cells with persistent infection of scrapie. The settings on record: read-out: Inhibitory effects on producing abnormal prion protein IC50 (quinacrine, literature), Doh-ura et al. 2000; cited from earlier work.

Read-outs that look alike come from different tables or passages of the source. A value given as a limit tells only on which side of the number the result lay.

Broadly, the IC50 is the midpoint of a concentration-inhibition curve.

Take `CNc1ccc(/C=C/c2nc3cc(F)ccc3o2)cc1` [BF-145, 2-(4-methylamino)-stryl-5-fluoro-benzoxazole]: in data set [1], the “Detection of spotted depositions of abnormal prion proteins (fluorescent signals)” value (“Detection” below) is on record as “spotted fluorescent signals were observed”. In addition, the IC50 in data set [2] was 5 nM. In addition, in data set [3], the “Permeability into the brain: content in Brain” value is reported as 4.4 % ID/g or ml and the “Permeability into the brain: content in Plasma” value is 1.2 % ID/g or ml. The “Concentration of inhibiting cell proliferation TC” value with ScN2a cells stood at 50 µM. In the data set “in vivo”, this molecule gave an MTD not below 10 mg/kg.

Take `CNc1ccc(/C=C/c2nc3ccc(O)cc3o2)cc1` [BF-165, 2-(4-methylamino)-styl-6-hydroxy-benzoazole]: in data set [1], the “Detection” value was “spotted fluorescent signals were observed”. The IC50 in data set [2] was found to be 10 nM. Also, in data set [3], the “Permeability into the brain: content in Brain” value is recorded as 7.2 % ID/g or ml and the “Permeability into the brain: content in Plasma” value was 1.9 % ID/g or ml. In the data set with ScN2a cells, the “Concentration of inhibiting cell proliferation TC” value was 100 µM. The molecule also registered an MTD in “in vivo” not below 10 mg/kg.

`CN(C)c1ccc(/C=C/c2ccc3ccccc3n2)cc1` [BF-179, 2-[2-(4-dimethylamino-phenyl)ethenyl]-quinoline]: the “Detection” value in data set [1] is on record as “spotted fluorescent signals were observed”. The IC50 in data set [2] amounted to 5 nM. In data set [3], the “Permeability into the brain: content in Brain” value is recorded as 4.3 % ID/g or ml and the “Permeability into the brain: content in Plasma” value is given as 1.7 % ID/g or ml. Besides, the “Concentration of inhibiting cell proliferation TC” value in the data set on ScN2a cells amounted to 5 µM. The molecule also came in with an MTD in the data set “in vivo” not below 10 mg/kg.

With `CN(C)c1ncc(/C=C/c2nc3ccc(OCCF)cc3o2)s1` [BF-227, 2-[2-(2-dimethylamino-thiazol-5-yl)ethenyl]-6-(2-fluoroethoxy) benzoxazole], in data set [1], the “Detection” value is “spotted fluorescent signals were observed”. In data set [2], the IC50 was determined as 4 nM. For the same molecule, in data set [3], the “Permeability into the brain: content in Brain” value is given as 7.9 % ID/g or ml and the “Permeability into the brain: content in Plasma” value is given as 2.1 % ID/g or ml. In the data set with ScN2a cells, the “Concentration of inhibiting cell proliferation TC” value amounted to 10 µM. The MTD in “in vivo” is not below 10 mg/kg.

On to `C(=C\c1nc2ccccc2o1)/c1ccccc1` [Compound N-407, 2-(2-phenylethenyl)-benzoxazole], for which the “Detection” value in data set [1] is recorded as “spotted fluorescent signals were observed”. In addition, in data set [2], the IC50 was determined as 1 nM and the “Inhibitory effects on producing abnormal prion proteins (in words)” value is given as “highly inhibitory effects”. In data set [3], the “Permeability into the brain: content in Brain” value was 16.0 % ID/g or ml and the “Permeability into the brain: content in Plasma” value is 1.3 % ID/g or ml. Also, in the data set with ScN2a cells, the “TC and safety concentration margin (in words)” value is recorded as “higher TCs, therefore higher safety concentration margins”; the “Concentration of inhibiting cell proliferation TC” value is 100 µM. This molecule also returned an MTD in the data set “in vivo” not below 10 mg/kg.

Consider `C(=C\c1nc2ccccc2s1)/c1ccccc1` [Compound N-438, 2-(2-phenylethenyl)-benzothiazole], for which, in data set [1], the “Detection” value was “spotted fluorescent signals were observed”. The IC50 in data set [2] is 10 nM. Moreover, in data set [3], the “Permeability into the brain: content in Brain” value was 11 % ID/g or ml and the “Permeability into the brain: content in Plasma” value is listed as 1.9 % ID/g or ml. For the same molecule, the “Concentration of inhibiting cell proliferation TC” value in the data set with ScN2a cells was 100 µM. This molecule displayed an MTD in “in vivo” not below 10 mg/kg.

As for `Cc1ccc2sc(/C=C/c3ccc(Cl)cc3)nc2c1` [Compound N-441, 2-[2-(4-chlorophenyl)ethenyl]-5-methyl-benzothiazole], the “Detection” value in data set [1] is listed as “spotted fluorescent signals were observed”. For the same molecule, in data set [2], the IC50 was 1 nM and the “Inhibitory effects on producing abnormal prion proteins (in words)” value is “highly inhibitory effects”. Besides, in data set [3], the “Permeability into the brain: content in Brain” value was 5.6 % ID/g or ml and the “Permeability into the brain: content in Plasma” value is reported as 2.7 % ID/g or ml. In the data set with ScN2a cells, the “TC and safety concentration margin (in words)” value is listed as “higher TCs, therefore higher safety concentration margins”; the “Concentration of inhibiting cell proliferation TC” value is 100 µM. Also, in the data set “in vivo”, the MTD is not below 10 mg/kg.

For the molecule `CCN(CC)CCCC(C)Nc1c2ccc(Cl)cc2nc2ccc(OC)cc12` (centres unmarked) [quinacrine], the IC50 in data set [4] is 400 nM.
